According to patent US20100105764A1 (priority 2006, published 2010):
Like-named read-outs stand apart in the source and are kept apart here.

Columns and labels:
E1-STS [1] = target: T1, E1-STS (Homo sapiens, UniProt P08842); details: cited from earlier work
T1 sequence (P08842 22-583): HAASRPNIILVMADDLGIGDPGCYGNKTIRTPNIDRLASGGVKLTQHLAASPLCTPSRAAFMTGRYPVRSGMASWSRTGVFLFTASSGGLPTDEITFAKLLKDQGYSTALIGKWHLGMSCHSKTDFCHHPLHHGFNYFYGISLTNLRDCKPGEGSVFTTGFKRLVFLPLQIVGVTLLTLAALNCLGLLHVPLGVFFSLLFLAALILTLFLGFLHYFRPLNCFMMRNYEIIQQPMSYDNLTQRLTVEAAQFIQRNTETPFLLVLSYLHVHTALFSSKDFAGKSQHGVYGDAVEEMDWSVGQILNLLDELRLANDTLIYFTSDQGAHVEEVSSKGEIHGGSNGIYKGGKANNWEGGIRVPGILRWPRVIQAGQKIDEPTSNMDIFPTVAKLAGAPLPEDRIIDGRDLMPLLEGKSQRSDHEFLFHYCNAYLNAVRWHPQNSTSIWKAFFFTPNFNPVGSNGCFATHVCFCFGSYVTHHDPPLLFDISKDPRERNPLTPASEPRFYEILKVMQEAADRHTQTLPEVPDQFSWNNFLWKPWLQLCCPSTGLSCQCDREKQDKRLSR

[2] = tested on: tumours derived from MCF-7AROM cells; assay: Study 2: growth of tumours derived from MCF-7AROM cells in nude mice; assay type: in vivo; details: Study 2, A4 plus E2S stimulated; oral administration; letrozole 0.1 mg/kg; FIGS. 9-11
Description: (§1) Ovariectomised, athymic female MF-1 nude mice (nu/nu) (age 6-8 weeks) were obtained from Harlan Olac. Twenty four hours before the inoculation of MCF-7 cells animals were injected s.c. with androstenedione (A4) or estradiol sulfate (E2S). On the day of inoculation MCF-7 cells (50 μl in Matrigel) were injected s.c. into the flanks of mice. After cell inoculation mice were injected with A4 and E2S and received another injection of these steroids 24 h later. Mice then received A4 plus E2S 3 times per week until the end of the study. When tumours had reached approximately 80 mm^3 dosing was initiated with compounds being administered orally (100 μl; vehicle 10% THF: 90% propylene glycol). Tumour measurements and the weight of animals were recorded weekly.
(§2) MCF-7 cells were routinely cultured in RPMI with 10% FCS. The cDNAs for either the aromatase or STS were cloned into the pCl-Neo vector which contains the neomycin resistant gene and transfected into MCF-7 cells. Stable clones were selected using G418 and cell lines established and evaluated for enzyme expression and activity.
(§3) This study was similar to the previous one with the exception that MCF-7STS or MCF-7AROM cells (1×10^7) were inoculated into different flanks of the same animals. The doses of A4 and E2S were increased to 100 μg for each compound.

[3] = Phase I trial: serum steroid levels; assay type: in vivo; details: postmenopausal women with breast cancer
Description: The assay for the determination of androstenedione, testosterone, E1 and E2 was the gas chromatographic tandem mass spectroscopic method of Wang et al., (2005). Recombinant cell ultra-sensitive bioassay for measurements of estrogens in postmenopausal women J Clin Endocrinol Metab 90: 1407-1413, 2005.
In addition to the aromatase pathway for the synthesis of estrogens in postmenopausal women, the sulfatase route is also important of the formation of steroids with potent estrogenic properties. Steroid sulfatase (STS) is responsible for the hydrolysis of estrone sulfate (E1S) and dehydroepiandrosterone sulfate (DHEAS) to estrone (E1) and DHEA respectively, which can be reduced in the body to estradiol (E2) and androstenediol (Adiol), both of which have potent estrogenic properties (FIGS. 3 & 4; reviewed in Reed et al., Endocrine Reviews, 256:171-202, 2005). […] This provides evidence for an aromatase independent pathway.

[4] = tested on: tumours derived from MCF-7STS cells; assay: Study 2: growth of tumours derived from MCF-7STS cells in nude mice; assay type: in vivo; details: Study 2, A4 plus E2S stimulated; oral administration; letrozole 0.1 mg/kg; FIGS. 9-11
Description: as §1, §2, §3

[5] = assay type: in vivo, mice
Description: as §1, §3

STS = target: T2, STS (Homo sapiens, UniProt P08842); assay: Phase I trial: STS activity in peripheral and tumour tissues; assay type: in vivo; details: postmenopausal women with breast cancer
T2 construct: STS activity in peripheral and tumour tissues in postmenopausal women with breast cancer; from tissue; host or cells: peripheral and breast tumour tissues of patients
T2 sequence (P08842 22-583): T1 sequence (P08842 22-583)
Description: In addition to the aromatase pathway for the synthesis of estrogens in postmenopausal women, the sulfatase route is also important of the formation of steroids with potent estrogenic properties. Steroid sulfatase (STS) is responsible for the hydrolysis of estrone sulfate (E1S) and dehydroepiandrosterone sulfate (DHEAS) to estrone (E1) and DHEA respectively, which can be reduced in the body to estradiol (E2) and androstenediol (Adiol), both of which have potent estrogenic properties (FIGS. 3 & 4; reviewed in Reed et al., Endocrine Reviews, 256:171-202, 2005).

[6] = tested on: tumours derived from MCF 7STS cells; assay type: in vivo; details: initial experiments, nude mice, FIG. 5
[7] = assay type: in vivo; details: for toxic effects (animal growth): Study 1, FIG. 7
Description: as §1
For this study MCF-7 cells over-expressing aromatase or STS were mixed and inoculated (5×10^6 cells) in Matrigel into the flanks of nude mice. A similar number of MCF-7WT cells were inoculated into the other flank. For this study growth of tumours was stimulated by s.c. injection of A4 (50 μg) and E2S (50 μg) in 50 μl vehicle.

MCF-7WT tumours = assay: Study 1: MCF-7WT tumour growth in nude mice; assay type: in vivo; details: Study 1, A4 plus E2S stimulated; oral; letrozole 0.1 mg/kg, STX213 10 mg/kg p.o. 5/7 per week; FIG. 6
Description: as §1, §2
(§4) For this study MCF-7 cells over-expressing aromatase or STS were mixed and inoculated (5×10^6 cells) in Matrigel into the flanks of nude mice. A similar number of MCF-7WT cells were inoculated into the other flank. […]

[8] = tested on: MCF-7STS+MCF-7AROM tumours; assay: Study 1: MCF-7STS+MCF-7AROM tumour growth in nude mice; assay type: in vivo; details: Study 1, A4 plus E2S stimulated; oral; letrozole 0.1 mg/kg, STX213 10 mg/kg p.o. 5/7 per week; FIG. 6
Description: as §1, §2, §4

[9] = rats; cited from earlier work
[10] = target: T3, dehydroepiandrosterone sulphatase (DHEA-STS) (Homo sapiens, UniProt P08842); details: cited from earlier work
T3 sequence (P08842 22-583): T1 sequence (P08842 22-583)

E1-STS [11] = target: T1, E1-STS; design: E1-STS activity in intact MCF-7 cells; endogenous in cells; host or cells: MCF-7 cells (intact); details: intact MCF-7 cells, at 0.1 nM; cited from earlier work

Compound | mode of E1-STS inhibition (inactivation) (E1-STS [1]) | growth of tumours derived from MCF-7AROM cells [2] | growth of tumours derived from MCF-7STS cells [4] | growth of tumours derived from MCF 7STS cells [6] | toxic effects (animal growth) [7] | growth of MCF-7WT tumours (MCF-7WT tumours) | growth of MCF-7STS+MCF-7AROM tumours [8] | other results
oestrone-3-N-sulphamate | weaker non-time-dependent inactivators |  |  |  |  |  |  | 
NS(=O)(=O)Oc1ccc2c3c(c(=O)oc2c1)CCCCC3 [STX64] |  | significant inhibition | significant inhibition | could be inhibited |  |  |  | levels of androstenedione [3]: reduced; levels of testosterone [3]: reduced; serum oestrogen concentrations [3]: reducing serum oestrogen concentrations; tolerability, effects on animal weight ([5]; Study 2, FIG. 12): well tolerated with no effects on animal weight; STS activity in peripheral and tumour tissues (STS): effectively blocked STS activity
CCCN1C(=O)CC2C3CCc4cc(OS(N)(=O)=O)ccc4C3CC[C@]2(C)C1=O (stereo partly shown) [STX213] |  |  |  | could be inhibited | Neither STX213 nor letrozole appeared to have any toxic effects | significantly reduced the growth | significantly reduced the growth | toxicity as shown by body weight ([7]; Study 1, at the dose tested, FIG. 7): devoid of any toxicity
oestrone-3-S-sulphamate | weaker non-time-dependent inactivators |  |  |  |  |  |  | 
CC12CCC3c4ccc(OS(N)(=O)=O)cc4CCC3C1CCC2=O (stereo not shown) [EMATE, oestrone-3-sulphamate] | time- and concentration-dependent manner |  |  |  |  |  |  | effect on memory [9]: memory enhancing effect; inhibition of DHEA-STS [10]: also inhibits; inhibition of E1-STS activity (E1-STS [11]): more than 99%
N#Cc1ccc(C(c2ccc(C#N)cc2)n2cncn2)cc1 [letrozole, reference compound] |  | significant inhibition | did not affect the growth |  | Neither STX213 nor letrozole appeared to have any toxic effects | some reduction of tumour growth | some reduction of tumour growth | tolerability, effects on animal weight ([5]; mouse, in vivo): well tolerated with no effects on animal weight
